# Experimental data published in patent US20120282377A1, “Methods and Formulations for Inhibiting Degradation of Photosensitive Sweeteners and Sweetener Enhancers” (priority 2011, published 2012).
# Several values for one entry are separate records, joined by “and”; a condition that tells them apart may be missing. Equal entries are not always repeated.
# How the values were obtained:
# [1] = cited from earlier work
# [2] = Monatin stability in lemon-lime beverage with or without EMIQ, UV irradiation (Example 4); assay type: physicochemical
# Method: (§1) The polyphenol enzymatically-modified isoquercitrin (EMIQ) was used to stabilize monatin (31 mg/L) in a lemon lime carbonated beverage formulation contained in either a regular (clear, colorless) PET bottle or a dark-colored PET bottle. The level of EMIQ in the samples was 7.5 PPM. A control formulation was used that contained no EMIQ. The samples were exposed to UV light or ambient indoor laboratory fluorescent lighting for up to 72 hours. UV light was administered in a UV chamber at 40° C. with approximately 400 Langley per 6 hours of exposure. The results listed below indicate that the monatin was very unstable in the control formulations with only 1.4% monatin remaining after 24 hours exposure to UV light. EMIQ provided protection from degradation of the monatin. When packaged in a dark-colored PET bottle approximately 89% monatin remained in the formulation after exposure to UV light for 24 hours. When exposed to ambient indoor laboratory lighting for 72 hours over 90% monatin remained in both clear and dark PET bottles containing the EMIQ polyphenol. All analyses were done by HPLC/MS.
# [3] = Odor analysis of UV and light exposed monatin samples by 6 panelists; assay type: physicochemical; parameters: key to Odor analysis: (+) = no odor or minor odor; (−) = distinct or unpleasant odor; details: for Odor analysis: 30 PPM in lemon lime matrix pH 3.35, panelists 1-6
# Method: A survey of odor and visual analysis of the UV and light exposed samples of the monatin samples was conducted by 6 panelists. Samples for analysis were solution of monatin in a lemon lime matrix without flavor at pH 3.35 (30 PPM monatin) exposed to visible for three days or UV light for 24 hours (equivalent of four days sun exposure).
# [4] = Monatin stability in lemon-lime beverage with EMIQ, visible light (Example 4); assay type: physicochemical; details: for % Monatin remaining / Conc. of Monatin: with EMIQ
# Method: as §1
# [5] = dark-colored PET, with EMIQ 7.5 PPM, UV exp. 0 hours
# [6] = dark-colored PET, with EMIQ 7.5 PPM, UV exp. 6 hours
# [7] = dark-colored PET, with EMIQ 7.5 PPM, UV exp. 12 hours
# [8] = dark-colored PET, with EMIQ 7.5 PPM, UV exp. 18 hours
# [9] = dark-colored PET, with EMIQ 7.5 PPM, UV exp. 24 hours
# [10] = regular PET, no EMIQ, UV exp. 0 hours
# [11] = regular PET, no EMIQ, UV exp. 6 hours
# [12] = regular PET, no EMIQ, UV exp. 12 hours
# [13] = regular PET, no EMIQ, UV exp. 18 hours
# [14] = regular PET, no EMIQ, UV exp. 24 hours
# [15] = regular PET, with EMIQ 7.5 PPM, UV exp. 0 hours
# [16] = regular PET, with EMIQ 7.5 PPM, UV exp. 6 hours
# [17] = regular PET, with EMIQ 7.5 PPM, UV exp. 12 hours
# [18] = regular PET, with EMIQ 7.5 PPM, UV exp. 18 hours
# [19] = regular PET, with EMIQ 7.5 PPM, UV exp. 24 hours
# [20] = dark-colored PET, Vis. exp. 0 hours
# [21] = dark-colored PET, Vis. exp. 5 hours
# [22] = dark-colored PET, Vis. exp. 7 hours
# [23] = dark-colored PET, Vis. exp. 23 hours
# [24] = dark-colored PET, Vis. exp. 28 hours
# [25] = dark-colored PET, Vis. exp. 48 hours
# [26] = regular PET, Vis. exp. 23 hours
# [27] = regular PET, Vis. exp. 28 hours
# [28] = regular PET, Vis. exp. 48 hours
smiles,measurement,setting,value
"NC(CC(O)(Cc1c[nH]c2ccccc12)C(=O)O)C(=O)O (stereo not shown) [Monatin, 2-amino-4-carboxy-4-hydroxy-5-(3-indolyl)-pentanoic acid]",degradation when exposed to UV light,[1],degrade to malodorous degradation products
same,% Monatin remaining,[2]; [5],100%
same,Conc. of Monatin,[2]; [5],30930 ng/mL
same,% Monatin remaining,[2]; [6],92.4% and 92.3%
same,Conc. of Monatin,[2]; [6],28590 ng/mL and 28530 ng/mL
same,% Monatin remaining,[2]; [7],90.7% and 90.9%
same,Conc. of Monatin,[2]; [7],28050 ng/mL and 28100 ng/mL
same,% Monatin remaining,[2]; [8],90.7% and 90.5%
same,Conc. of Monatin,[2]; [8],28040 ng/mL and 28000 ng/mL
same,% Monatin remaining,[2]; [9],89.0% and 89.3%
same,Conc. of Monatin,[2]; [9],27510 ng/mL and 27620 ng/mL
same,% Monatin remaining,"[2]; dark-colored PET, with EMIQ 7.5 PPM, UV exp. 24 hours, listed as monatin",approximately 89%
same,% Monatin remaining,[2]; [10],100%
same,Conc. of Monatin,[2]; [10],30760 ng/mL and 30790 ng/mL
same,% Monatin remaining,[2]; [11],68.6%
same,Conc. of Monatin,[2]; [11],21130 ng/mL and 21110 ng/mL
same,% Monatin remaining,[2]; [12],9.4% and 9.3%
same,Conc. of Monatin,[2]; [12],2890 ng/mL and 2870 ng/mL
same,% Monatin remaining,[2]; [13],1.7% and 1.6%
same,Conc. of Monatin,[2]; [13],540 ng/mL and 510 ng/mL
same,% Monatin remaining,[2]; [14],1.4%
same,Conc. of Monatin,[2]; [14],430 ng/mL and 440 ng/mL
same,% Monatin remaining,[2]; [15],100%
same,Conc. of Monatin,[2]; [15],30930 ng/mL
same,% Monatin remaining,[2]; [16],83.1% and 82.9%
same,Conc. of Monatin,[2]; [16],25710 ng/mL and 25620 ng/mL
same,% Monatin remaining,[2]; [17],69.3%
same,Conc. of Monatin,[2]; [17],21420 ng/mL and 21440 ng/mL
same,% Monatin remaining,[2]; [18],52.0% and 51.7%
same,Conc. of Monatin,[2]; [18],16070 ng/mL and 15990 ng/mL
same,% Monatin remaining,[2]; [19],34.9% and 34.8%
same,Conc. of Monatin,[2]; [19],10800 ng/mL and 10760 ng/mL
same,Odor analysis,"[3]; Dark-colored PET bottle, UV light 24 hours",− and +
same,Odor analysis,"[3]; Dark-colored PET bottle, visible light three days",− and +
same,Odor analysis,"[3]; PET with UV barrier, UV light 24 hours",− and +
same,Odor analysis,"[3]; PET with UV barrier, visible light three days",+
same,Odor analysis,"[3]; Regular PET, UV light 24 hours",− and +
same,Odor analysis,"[3]; Regular PET, visible light three days",+
same,odor change after UV exposure,[3]; samples in the dark-colored PET bottles,no or minimal odor change
same,monatin remained,"[4]; ambient indoor laboratory lighting for 72 hours, both clear and dark PET bottles containing the EMIQ polyphenol",over 90%
same,% Monatin remaining,[4]; [20],100%
same,Conc. of Monatin,[4]; [20],30930 ng/mL
same,% Monatin remaining,[4]; [21],97.5%
same,Conc. of Monatin,[4]; [21],30160 ng/mL
same,% Monatin remaining,[4]; [22],96.4% and 96.2%
same,Conc. of Monatin,[4]; [22],29810 ng/mL and 29760 ng/mL
same,% Monatin remaining,[4]; [23],93.3% and 93.1%
same,Conc. of Monatin,[4]; [23],28870 ng/mL and 28790 ng/mL
same,% Monatin remaining,[4]; [24],94.5%
same,Conc. of Monatin,[4]; [24],29220 ng/mL
same,% Monatin remaining,[4]; [25],92.1% and 92.4%
same,Conc. of Monatin,[4]; [25],28490 ng/mL and 28590 ng/mL
same,% Monatin remaining,"[4]; regular PET, Vis. exp. 0 hours",100%
same,Conc. of Monatin,"[4]; regular PET, Vis. exp. 0 hours",30930 ng/mL
same,% Monatin remaining,"[4]; regular PET, Vis. exp. 5 hours",99.0% and 98.6%
same,Conc. of Monatin,"[4]; regular PET, Vis. exp. 5 hours",30620 ng/mL and 30510 ng/mL
same,% Monatin remaining,"[4]; regular PET, Vis. exp. 7 hours",97.2% and 97.4%
same,Conc. of Monatin,"[4]; regular PET, Vis. exp. 7 hours",30060 ng/mL and 30120 ng/mL
same,% Monatin remaining,[4]; [26],94.1%
same,Conc. of Monatin,[4]; [26],29100 ng/mL
same,% Monatin remaining,[4]; [27],94.7% and 94.8%
same,Conc. of Monatin,[4]; [27],29270 ng/mL and 29320 ng/mL
same,% Monatin remaining,[4]; [28],92.7% and 92.5%
same,Conc. of Monatin,[4]; [28],28680 ng/mL and 28610 ng/mL
